SMILES strings stand for the structures. pEC50, pIC50: −log10 of the molar value. Calls of active or inactive are those of the source. The rule behind the calls is not given here.

Series [1] in a line: Antioxidant activity assessed as trolox equivalent of ORAC radical scavenging activity incubated for 15 mins by fluorescence based assay. Type of series: functional.
Series [2] can be described thus: Antioxidant activity assessed as DPPH radical scavenging activity incubated for 2 hrs under dark condition by absorbance based assay. Type of series: functional. Background: Loss of DPPH colour is used to gauge radical scavenging.
Series [3] in a line: Antioxidant activity assessed as ABTS radical scavenging activity measured after 6 mins by absorbance based assay. Type of series: functional.
Series [4] addresses Acetylcholinesterase (Homo sapiens, UniProt P22303). The series is described as follows: Inhibition of human erythrocyte AChE using acetylthiocholine iodide as substrate preincubated for 10 mins followed by substrate addition measured after 15 mins by Ellman's method. For orientation: Ellman's reagent forms a yellow product with free thiols.
For series [5], the target named is Cholinesterase (Homo sapiens, UniProt P06276). The series is described as follows: Inhibition of human BChE by Ellman's method.
Sequence of Cholinesterase (P06276 whole entry): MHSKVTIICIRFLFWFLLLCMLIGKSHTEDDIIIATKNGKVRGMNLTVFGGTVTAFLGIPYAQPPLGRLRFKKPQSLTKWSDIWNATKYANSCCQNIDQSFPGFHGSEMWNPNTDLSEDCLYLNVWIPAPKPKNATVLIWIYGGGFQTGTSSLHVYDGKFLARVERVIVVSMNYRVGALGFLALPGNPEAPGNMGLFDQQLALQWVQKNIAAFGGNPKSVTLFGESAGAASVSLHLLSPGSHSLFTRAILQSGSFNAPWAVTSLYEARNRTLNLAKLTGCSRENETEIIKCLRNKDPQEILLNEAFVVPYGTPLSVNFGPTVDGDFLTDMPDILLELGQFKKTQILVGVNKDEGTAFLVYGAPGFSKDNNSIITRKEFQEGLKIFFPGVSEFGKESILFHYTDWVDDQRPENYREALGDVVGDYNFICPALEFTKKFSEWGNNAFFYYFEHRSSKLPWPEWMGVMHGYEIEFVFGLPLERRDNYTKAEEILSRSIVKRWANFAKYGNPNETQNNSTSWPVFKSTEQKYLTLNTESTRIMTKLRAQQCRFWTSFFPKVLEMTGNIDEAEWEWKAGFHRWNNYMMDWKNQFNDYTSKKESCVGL
The test system of series [6] is HepG2. The series is described as follows: Cytotoxicity against human HepG2 cells upto 100 uM incubated for 3 hrs by MTT assay. To be noted: hepg2, 3 h.
For series [7], the system named is SK-N-BE(2). The series is described as follows: Inhibition of t-BHP-induced ROS production in human SK-N-BE(2) cells at 100 uM incubated for 3 hrs by DCFH-DA probe based analysis. The format is functional, cell-based.
Series [8] concerns SK-N-BE(2). The series is described as follows: Cytotoxicity against human SK-N-BE(2) cells upto 100 uM incubated for 3 hrs by MTT assay. Type of series: toxicity, cell-based.
Series [9] in a line: Solubility of compound. Type of series: physicochemical.

Sequence of Acetylcholinesterase (P22303 whole entry): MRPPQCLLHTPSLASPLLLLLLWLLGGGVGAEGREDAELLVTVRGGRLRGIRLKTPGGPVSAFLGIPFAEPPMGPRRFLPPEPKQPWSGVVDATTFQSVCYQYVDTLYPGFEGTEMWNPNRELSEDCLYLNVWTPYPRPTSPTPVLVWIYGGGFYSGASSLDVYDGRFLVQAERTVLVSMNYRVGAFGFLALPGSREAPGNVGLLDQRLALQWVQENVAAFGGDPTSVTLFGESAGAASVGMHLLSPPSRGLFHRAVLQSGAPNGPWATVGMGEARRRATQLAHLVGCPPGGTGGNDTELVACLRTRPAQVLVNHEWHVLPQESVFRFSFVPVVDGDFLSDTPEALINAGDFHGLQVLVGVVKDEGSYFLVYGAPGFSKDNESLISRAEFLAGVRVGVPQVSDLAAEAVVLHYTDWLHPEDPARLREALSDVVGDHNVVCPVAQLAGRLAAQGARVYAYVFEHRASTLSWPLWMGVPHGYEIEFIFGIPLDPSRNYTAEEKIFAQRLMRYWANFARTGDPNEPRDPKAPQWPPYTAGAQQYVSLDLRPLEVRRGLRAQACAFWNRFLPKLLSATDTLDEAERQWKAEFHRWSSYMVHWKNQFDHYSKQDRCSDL

The term pEC50 denotes −log10 of the EC50, conventionally taken in molar units. One may read the pIC50 as −log10 of the IC50, conventionally taken in molar units. A lower pIC50 goes with a large IC50. For the compound `COc1cc2c(cc1O)CC(CC1CCN(Cc3ccccc3)CC1)C2=O` (stereo unspecified), the Activity in [1] turned out to be 2.1. For the same compound, the figures for the negative-log EC50 (pEC50) in series [2] and in [3] were 4.49 and 5.07, respectively. For the same compound, the pIC50 was 6.11 in series [4] and 4.45 in series [5].

For the compound `O=C(O)CCCC[C@@H]1CCSS1` [THIOCTIC ACID], the Activity entry in series [6] and in series [8] was “Non-toxic” in each case. Besides, the “ROS inhibition activity (qualitative)” value in series [7] is “Active”.

Consider `Cc1c(C)c2c(c(C)c1O)CC[C@@](C)(CCC[C@H](C)CCC[C@H](C)CCCC(C)C)O2` [ALPHA-TOCOPHEROL], for which the figures for the Activity in series [1], in series [6] and in series [8] were 1, “Non-toxic” and “Non-toxic”, respectively. Further, the pEC50 in series [2] is 4.56; in series [3], 4.81. In addition, the “ROS inhibition activity (qualitative)” value in series [7] is “Active”.

For the compound `COc1cc2c(cc1OC)C(=O)C(CC1CCN(Cc3ccccc3)CC1)C2` (stereo unspecified) [DONEPEZIL], the Activity in [1] is under 0.5; in [6], “Non-toxic”; in series [8], “Non-toxic”. The pEC50 in series [2] and in series [3] was under 3.00 each time. Further, the “ROS inhibition activity (qualitative)” value in [7] was “inactive”.

`COc1cc2c(cc1OC(=O)CCCCC1CCSS1)C(=O)C(CC1CCN(Cc3ccccc3)CC1)C2` (stereo unspecified): in series [9], the solubility entry is given as “Insoluble”. For the same compound, the Activity in series [1] was under 0.5; in series [6], “Non-toxic”; in [8], “Non-toxic”. The negative-log EC50 (pEC50) in series [2] and in series [3] was under 3.40 each time. Besides, the values for the pIC50 in series [4] and in series [5] were 7.56 and 5.40, respectively. Moreover, the “ROS inhibition activity (qualitative)” value in series [7] is “inactive”.

In the case of `O=c1c(O)c(-c2ccc(O)c(O)c2)oc2cc(O)cc(O)c12` [QUERCETIN], in [1], the Activity was found to be 4. The values for the pEC50 in series [2] and in series [3] were 4.86 and 5.47, respectively.

With `COc1cc2c(cc1O)C(=O)C(CC1CCN(Cc3ccccc3)CC1)C2` (stereo unspecified), the Activity in series [1] was 9.4; in series [6] it was “Non-toxic”; in series [8], “Non-toxic”. Moreover, the pEC50 in series [2] is under 3.40; in series [3] it was 3.82. Also, the values for the pIC50 in [4] and in series [5] were 6.06 and 4.46, respectively. Also, in series [7], the “ROS inhibition activity (qualitative)” value was “inactive”.

As for `O=C1c2cc(O)c(O)cc2CC1CC1CCN(Cc2ccccc2)CC1` (stereo unspecified), in [9], the solubility entry was “soluble”. The Activity in series [1] is 2.2; in series [6], “Non-toxic”; in series [8] it was “Non-toxic”. Moreover, the negative-log EC50 (pEC50) is 4.53 in [2] and 4.91 in [3]. For the same compound, the results for the pIC50 in [4] and in series [5] were 5.74 and 3.61, respectively. Also, in series [7], the “ROS inhibition activity (qualitative)” value is given as “Active; Activity Comparable To Vitamin E”.

On to `COc1cc2c(cc1OCCCCCC1CCSS1)C(=O)C(CC1CCN(Cc3ccccc3)CC1)C2` (stereo unspecified), for which the Activity was under 0.5 in series [1], “Non-toxic” in series [6] and “Non-toxic” in series [8]. For the same compound, the negative-log EC50 (pEC50) in series [2] and in series [3] was under 3.40 in each case. The pIC50 in series [4] is 8.12; in [5], 5.83. The “ROS inhibition activity (qualitative)” value in series [7] is “Active; More Pronounced Effect Than Lipoic Acid”.

Consider `COc1cc2c(cc1OCCCCCC1CCSS1)CC(CC1CCN(Cc3ccccc3)CC1)C2=O` (stereo unspecified), for which the solubility result in series [9] is listed as “Insoluble”. Further, the Activity in series [1] was under 0.5; in series [6] it was “Non-toxic”; in series [8], “Non-toxic”. For the same compound, the pEC50 in series [2] and in [3] was under 3.40 each time. The figures for the pIC50 in series [4] and in [5] were 8.04 and 5.49, respectively. The “ROS inhibition activity (qualitative)” value in series [7] is reported as “Active; More Pronounced Effect Than Lipoic Acid”.
